Patent publication US9410217B2, “Method of reducing a fermentation and/or enzyme inhibitor in a saccharide-containing composition” (priority 2014, dated 2016)
Several values for one entry are separate records, joined by “and”; a condition that tells them apart may be missing. Equal values may be shown once. Read-outs that look alike come from different tables or passages of the source.

Experiments:
[1] = Reduction of HMF in sugar liquor after contact with amine
Method: Sugar liquor was prepared by a two-step hydrolysis process with subsequent refining. A slurry of particulate biomass was first subjected to a first hydrolysis step at about 190-240° C. and 50-80 bar for 1-120 min. The resulting solids were subjected to supercritical or near-critical water conditions at about 374-450° C. and 221-300 bar for less than 1 minute. The resulting liquid portion was concentrated to about 250-300 g/L of monomer sugar equivalent and acid hydrolyzed at about 100-200° C. for 1 hour. The acid-hydrolyzed liquor was filtered and neutralized with sodium hydroxide to a pH of about 5-7. After that, the liquid portion was overlimed with calcium oxide at pH of about 8-10 and filtered. The final pH adjustment to about 5-7 was done with 70% sulfuric acid. Overliming was performed to produce the sugar liquor used in these examples, and an aldehyde compound, HMF, subsequently re-added to simulate a sugar liquor that is not overlimed.
The pH of 100 g of the sugar liquor was adjusted to 6 with sodium hydroxide prior to addition of the amine. 1 g of m-phenylenediamine (MPD) was added to the sugar liquor, and the mixture was shaken for 1 hour.
Using the same procedure to prepare the sugar liquor as described in Example 1, the pH of 100 g of the sugar liquor was adjusted to 6 with NaOH prior to addition of the amine. For each sample, 1 g of amine was added, and the mixture was shaken for 1 hour.
Using the same procedure to prepare the sugar liquor as described in Example 1, the pH of 100 g of the sugar liquor was adjusted to 6 with sodium hydroxide prior to addition of the amine. For each sample, 1 g of amine was added, and the mixture was shaken for 1 hour.

[2] = tested on: Saccharomyces cerevisiae; assay: Fermentation test of treated sugar liquor with yeast; assay type: cell-based
Method: The saccharide-containing compositions of Examples 1 and 3 were subjected to a fermentation test with the yeast Saccharomyces cerevisiae. In the fermentation test, 1% yeast extract and 2% peptone were added to the saccharide-containing compositions of Examples 1 and 3 as growth nutrients, and these compositions were then inoculated with 5% inoculum of Saccharomyces cerevisiae (optical density 10). If more than 80% of sugars were consumed in 72 hours of fermentation, the test is considered a “pass” (i.e., a satisfactory test result).
The saccharide-containing compositions were subjected to a fermentation test with the yeast Saccharomyces cerevisiae. In the fermentation test, 1% yeast extract and 2% peptone were added to the saccharide-containing compositions as growth nutrients, and these compositions were then inoculated with 5% inoculum of Saccharomyces cerevisiae (optical density 10). If more than 80% of sugars were consumed in 72 hours of fermentation, the test is considered a “pass” (i.e., a satisfactory test result).

[3] = Reduction of syringaldehyde in xylose monomer stream (GC/MS); details: for Syringaldehyde: 100 g xylose monomer stream after treatment, shaken 30-60 min, untreated control 321.5 ppm; for syringaldehyde reduction (in words): xylose monomer stream, from about 321.5 ppm, pass is less than about 50 ppm
Method: The acid-hydrolyzed liquor was filtered and then neutralized with sodium hydroxide to a pH of about 5-7 to produce the xylose monomer stream. Five samples labeled Samples 1-5 were evaluated as described in Table 2. Sample 1 was an untreated control. […] The flask was shaken for 30-60 min, and Samples 2 and 5 were then analyzed for syringaldehyde by GC/MS. […] The flask was shaken for about 30-60 min, adjusted to pH of about 5 with H2SO4, and then filtered. The resulting liquid portion was analyzed by GC/MS. For Sample 4, the pH of 100 g of the xylose monomer stream was adjusted to 5-6 with NH4OH, the flask was shaken for 30-60 min, and then the samples were analyzed by GC/MS.

[4] = tested on: Pichia stipitis; assay: Fermentation testing of treated xylose monomer stream; assay type: cell-based
Method: For fermentation testing, the pH was adjusted back to 5 with H2SO4 and fermentation was performed with the xylose fermenting organism Pichia stipitis.

[5] = sugar liquor after contact, 1 g amine per 100 g liquor, pH 6, shaken 1 hour

SMILES | % Glucose Consumed ([2]; 24 hr) [%] | Ethanol ([2]; 24 hr) [g/L] | % Glucose Consumed ([2]; 48 hr) [%] | Ethanol ([2]; 48 hr) [g/L] | % Glucose Consumed ([2]; 72 hr) [%] | Ethanol ([2]; 72 hr) [g/L] | HMF ([2]; 72 hr) [g/L] | HMF [1, 5] [g/L] | HMF ([2]; 24 hr) [g/L] | HMF ([2]; 48 hr) [g/L] | other results
C1CCNCC1 [piperidine] | – | – | – | – | – | – | – | – | – | – | HMF ([1]; pH 6): 6.13 g/L; % Glucose Consumed [2]: 5.39% and 8.05% and 5.62% and 5.78%; Ethanol [2]: 2.37 g/L and 2.49 g/L and 2.71 g/L and 2.15 g/L; HMF [2]: 5.31 g/L and 4.83 g/L and 5.51 g/L and 5.61 g/L
Nc1ccccc1N [OPD, o-phenylenediamine] | 24.24 | 16.80 | 96.61 | 86.88 | 96.53 | 90.28 | 0.36 | – | – | – | –
Nc1nc(N)nc(N)n1 [melamine] | 4.24 | 2.13 | 4.15 | 2.48 | 4.97 | 2.1 | 6.45 | 7.52 | 6.59 | 6.47 | % Glucose Consumed ([2]; 0 hr): 0%; HMF ([2]; 0 hr): 7.52 g/L
N.O [NH4OH] | – | – | – | – | – | – | – | – | – | – | Syringaldehyde [3]: 147.7 ppm; syringaldehyde reduction (in words) [3]: did not reduce the concentration of syringaldehyde to below a detectable level
[BH4-].[Na+] [NaBH4] | – | – | – | – | – | – | – | – | – | – | Syringaldehyde [3]: 218.4 ppm; syringaldehyde reduction (in words) [3]: did not reduce the concentration of syringaldehyde to below a detectable level
Nc1ccc(N)cc1 [PPD, p-phenylenediamine] | 24.18 | 13.74 | 97.75 | 84.75 | 97.40 | 84.79 | – | 3.40 | 0.30 | 0.37 | –
NCCO [ethanolamine] | 7.92 | 3.53 | 6.29 | 2.74 | 7.45 | 2.92 | 4.67 | 6.01 | 5.24 | 5.03 | % Glucose Consumed ([2]; 120 hr): 12.73%; Ethanol ([2]; 120 hr): 3.54 g/L; HMF ([2]; 120 hr): 4.46 g/L
Cc1ccc(N)cc1N [DAT, 2,4-diaminotoluene] | 51.55 | 43.15 | 96.03 | 92.29 | 95.88 | 86.38 | – | 0.74 | – | – | –
Nc1cccc(N)c1 [MPD, m-phenylenediamine] | 95.64 | 77.25 | – | – | – | – | – | 1.50 | – | – | Ethanol ([4]; fermentation time 48 hr): 1.80 g/L; Ethanol ([4]; fermentation time 72 hr): 4.86 g/L; Ethanol ([4]; fermentation time 96 hr): 8.22 g/L; fermentability of treated sample (in words) ([4]; xylose monomer stream, pH adjusted back to 5): fermentable; Syringaldehyde [3]: Not detected; syringaldehyde reduction (in words) [3]: below detectable levels
NC(N)=O [urea] | 6.18 | 2.72 | 4.49 | 2.23 | 6.35 | 2.39 | 6.06 | 7.44 | 6.58 | 6.49 | % Glucose Consumed ([2]; 0 hr): 0%; Ethanol ([2]; 0 hr): 1.38 g/L; HMF ([2]; 0 hr): 7.44 g/L; % Glucose Consumed ([2]; 120 hr): 8.49%; Ethanol ([2]; 120 hr): 2.41 g/L; HMF ([2]; 120 hr): 5.66 g/L
Nc1ccccc1 [aniline] | 5.19 | 1.55 | 5.19 | 1.51 | – | – | – | 7.43 | 5.2 | 4.89 | –
